Each structure is given as a SMILES string.

Series [1] has as its target T1, Human recombinant estrogen receptor-β (ER-β) (Homo sapiens, UniProt Q92731).
T1 construct: purchased PanVera Corporation (Madison, Wis.)
The series is described as follows: Estrogen receptor binding assay, 3H-17β-estradiol displacement, ER-β. The settings on record: 4° C. overnight. Here is the method:
Human recombinant estrogen receptor-α (ER-α) and estrogen receptor-β (ER-β) were obtained from PanVera Corporation (Madison, Wis.) to conduct the binding assay. To measure the binding affinity of (2), various concentrations of (2) or 17β-estradiol were incubated with either ER-α or ER-β receptor in the presence of a fixed amount of ^3H-17β-estradiol at 4° C. overnight. At the end of the incubation, the free- and bound-3H-estradiol were separated following the instructions provided by the manufacturer using hydroxylapatite.

Series [2] relates to DU-145 cells. The series is described as follows: Cell cycle analysis by flow cytometry in DU-145 cells. It is filed as cell-based, human. The conditions noted are these: DU-145, 10 μM. Here is the method:
DU-145 cells were treated with 10 μM of (2) for 6, 24, 48, 72, or 96 h. At the end of each time period, cells were hypotonically lysed in DNA staining solution (0.5 mg/ml propidium iodide, 0.1% sodium citrate, and 0.05% Triton X-100). The stained cells were analyzed by flow cytometry (FACS) using software provided by Phoenix Flow System.
In general terms: In flow cytometry, cells or beads pass a laser one at a time.

In series [3] the test system is HIF-1α protein in PC-3 prostate cancer cells. The series is described as follows: HIF-1α protein expression by immunoblotting, PC-3 cells. Format: cell-based, human. The conditions noted are these: 6 h. Here is the method: Hypoxia experiments were performed in either of two ways. To produce a very low ambient oxygen concentration (effectively anoxia), we used a protocol in which cells were incubated in a 5% CO2-air atmosphere at 37° C. overnight and then placed in aluminum gas-exchange chambers maintained at 37° C. (Laderoute K R et al. Mol Cell Biol 22: 2515-2523, (2002); Laderoute K R et al. Mol Cell Biol 24: 4128-4137, (2004)). The chambers containing the cells were then placed in a 37° C. circulating water bath and the original atmosphere was repeatedly exchanged with 5% CO2-95% N2 using a manifold equipped with a vacuum pump and a gas cylinder. Atmospheric oxygen partial pressure (pO2) values of less than or equal to 0.01% (relative to air at pO2 of about 21%) can be achieved inside the chambers using this system. Following various hypoxic exposures, the chambers were opened an anaerobic glove box (Bactron X, Sheldon Manufacturing Inc., Cornelius, Oreg.; attached to a cylinder containing 5% CO2-95% N2) to prepare cell lysates without significant reoxygenation. All manipulations of hypoxic cells were performed in the anaerobic glove box. Atmospheric oxygen levels in both the chambers and the glove box have been measured and calibrated using a polarographic oxygen electrode (Oxygen Sensors, Inc., Norristown, Pa.). Hypoxia experiments involving a pO2 of 1% were performed by equilibrating the glove box with an atmosphere of 1% O2 5% CO2 […] held at 37° C. with a circulating fan. Cells were incubated inside a humidified space in the glove box and the medium on the cells was gently and continually agitated by using a rotary shaker. For these experiments, we used RAW 264.7 immortalized mouse macrophages as normal control cells, PC-3 prostate cancer cells, and MDA-MB-231 breast cancer cells, all available from ATCC.
We used immunoblotting to evaluate the experiments. Nuclear lysates were used to detect HIF-1α protein by immunoblotting (Murphy B J et al. Biochem Biophys Res Commun (In Press): 2005). Briefly, cells were placed on ice in air or on Super Ice® cold packs in the anaerobic glove box and the medium was removed. […] After spinning at 9,000×g for 5 min at 4° C., the protein concentrations of the supernatants were determined by using a bicinchoninic acid assay (Pierce Biotechnology). […] Primary antibody binding was detected and visualized by using the ECL Plus Western Blotting Detection System (Amersham Pharmacia Biotech) according to the supplier's instructions. HIF-1α protein was detected by using an anti-HIF-1α monoclonal antibody (Novus Biologicals, Cat. No. NB100-123; diluted 1:500) and a horseradish peroxidase-conjugated anti-mouse IgG secondary antibody (Santa Cruz Biotechnology, Cat. No. sc-2062; diluted 1:20,000). […]
On the technique in general: A western blot detects proteins with antibodies after separation by electrophoresis.

In series [4] the test system is HIF-1α protein in RAW 264.7 immortalized mouse macrophages. The series is described as follows: HIF-1α protein expression by immunoblotting, RAW 264.7 macrophages. Format: cell-based. The settings on record: RAW 264.7 macrophages (normal cell line). Here is the method:
Hypoxia experiments were performed in either of two ways. To produce a very low ambient oxygen concentration (effectively anoxia), we used a protocol in which cells were incubated in a 5% CO2-air atmosphere at 37° C. overnight and then placed in aluminum gas-exchange chambers maintained at 37° C. (Laderoute K R et al. Mol Cell Biol 22: 2515-2523, (2002); Laderoute K R et al. Mol Cell Biol 24: 4128-4137, (2004)). The chambers containing the cells were then placed in a 37° C. circulating water bath and the original atmosphere was repeatedly exchanged with 5% CO2-95% N2 using a manifold equipped with a vacuum pump and a gas cylinder. Atmospheric oxygen partial pressure (pO2) values of less than or equal to 0.01% (relative to air at pO2 of about 21%) can be achieved inside the chambers using this system. […] Atmospheric oxygen levels in both the chambers and the glove box have been measured and calibrated using a polarographic oxygen electrode (Oxygen Sensors, Inc., Norristown, Pa.). […]
(§1) We used immunoblotting to evaluate the experiments. […] After spinning at 9,000×g for 5 min at 4° C., the protein concentrations of the supernatants were determined by using a bicinchoninic acid assay (Pierce Biotechnology). […] Primary antibody binding was detected and visualized by using the ECL Plus Western Blotting Detection System (Amersham Pharmacia Biotech) according to the supplier's instructions. […]

Series [5] relates to HIF-1α protein in MDA-MB-231 human breast carcinoma cells. The series is described as follows: HIF-1α protein expression by immunoblotting, MDA-MB-231 cells. Format: cell-based. The conditions noted are these: MDA-MB-231, normoxic and anoxic. Here is the method:
Hypoxia experiments were performed in either of two ways. To produce a very low ambient oxygen concentration (effectively anoxia), we used a protocol in which cells were incubated in a 5% CO2-air atmosphere at 37° C. overnight and then placed in aluminum gas-exchange chambers maintained at 37° C. (Laderoute K R et al. Mol Cell Biol 22: 2515-2523, (2002); Laderoute K R et al. Mol Cell Biol 24: 4128-4137, (2004)). The chambers containing the cells were then placed in a 37° C. circulating water bath and the original atmosphere was repeatedly exchanged with 5% CO2-95% N2 using a manifold equipped with a vacuum pump and a gas cylinder. Atmospheric oxygen partial pressure (pO2) values of less than or equal to 0.01% (relative to air at pO2 of about 21%) can be achieved inside the chambers using this system. Following various hypoxic exposures, the chambers were opened an anaerobic glove box (Bactron X, Sheldon Manufacturing Inc., Cornelius, Oreg.; attached to a cylinder containing 5% CO2-95% N2) to prepare cell lysates without significant reoxygenation. All manipulations of hypoxic cells were performed in the anaerobic glove box. Atmospheric oxygen levels in both the chambers and the glove box have been measured and calibrated using a polarographic oxygen electrode (Oxygen Sensors, Inc., Norristown, Pa.). […]
as §1, with “instructions. HIF-1α protein was detected by using an anti-HIF-1α monoclonal antibody (Novus Biologicals, Cat. No. NB100-123; diluted 1:500) and a horseradish peroxidase-conjugated anti-mouse IgG secondary antibody (Santa Cruz Biotechnology, Cat. No. sc-2062; diluted 1:20,000).” for “instructions.”

T1 sequence (Q92731 whole entry): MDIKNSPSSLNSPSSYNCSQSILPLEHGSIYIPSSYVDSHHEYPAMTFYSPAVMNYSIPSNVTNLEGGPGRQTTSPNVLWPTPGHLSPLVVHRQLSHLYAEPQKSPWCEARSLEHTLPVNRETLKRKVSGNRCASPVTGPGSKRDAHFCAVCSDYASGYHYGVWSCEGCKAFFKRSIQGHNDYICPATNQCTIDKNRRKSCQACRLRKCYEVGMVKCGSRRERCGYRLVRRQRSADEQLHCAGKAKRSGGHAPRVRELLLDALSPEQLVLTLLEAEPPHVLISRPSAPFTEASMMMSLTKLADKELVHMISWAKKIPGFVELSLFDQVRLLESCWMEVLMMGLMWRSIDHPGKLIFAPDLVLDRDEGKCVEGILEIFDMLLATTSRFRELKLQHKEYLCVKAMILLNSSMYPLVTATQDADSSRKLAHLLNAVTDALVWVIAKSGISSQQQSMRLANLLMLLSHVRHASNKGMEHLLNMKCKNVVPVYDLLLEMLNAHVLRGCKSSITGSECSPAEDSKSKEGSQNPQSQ

Turning to `C[C@@H]1Cc2cc(O)ccc2C2CCC3(C)/C(=C/COCCN(C)C)CCC3C21` (stereo partly drawn) [Compound (2), (E)-3-Hydroxy-7α-methyl-21-[(2-dimethylamino)ethoxy]-19-norpregna-1,3,5(10),17(20)-tetraene], the “binding affinity (relative to non-radiolabeled estradiol, 50% displacement of 3H-estradiol)” value in series [1] is 64. For the same compound, the “more cells arrested in phase G1 compared with untreated control” value in series [2] is listed as “about 30%”. In addition, the HIF-1α protein expression result is “potent inhibitory effect” in series [3] (PC-3, anoxic, hypoxic and normoxic conditions, less than or equal to 5 μM); “did not influence” in series [4]; “potent inhibitor” in series [5]. In addition, in series [3] (PC-3, less than or equal to 5 μM), the “cytotoxicity toward PC-3 cells” value is recorded as “without obvious cytotoxicity”.

Values taken from patent US20120252773A1, “Method and composition for inhibiting cell proliferation and angiogenesis” (priority 2005, published 2012).
